According to patent publication US6313170A, “L-threonate ferrous, as well as pharmaceutical composition and use for improving and treating human anemia thereof” (priority 1997, dated 2001):

Tests used:
[1] = rat, in vivo, po, 2.5 mg/kg, 72 h
Description: Its chemical formula is Fe(C4 H7 O5)2.2H2 O, molecular weight:362.
Animals: Male Wistar rats were supplied by Experimental Animal Center, Tumor Institute of Heilongjian Province with body weight of 140 g-180 g. The iron-low diet contains iron 0.9 mg/kg.
50 rats were randomly divided into 5 groups of [19] 10 rats each. On this basis of administration of iron-low diet, each group of rats was administered respectively by gavage according to the dosage below:
High dosage group: Fe, 5 mg/kg, ferrous L-threonate, 32.32 mg/kg;
Middle dosage group: Fe, 2.5 mg/kg, ferrous L-threonate, 16.16 mg/kg;
Low dosage group: Fe, 1.0 mg/kg, ferrous L-threonate, 6.46 mg/kg;
Positive drug control group (ferrous sulfate): Fe, 2.5 mg/kg, ferrous sulfate, 12.43 mg/kg;
Negative drug control group (iron-low diet): Fe, 0.9 mg/kg (measured value).
After the end of 7 days feeding normal diet period, rats were supplemented with iron-low diet prepared according to AOAC formula for another 7 days. The 1-3 groups were treatment groups and supplemented with ferrous L-threonate 32.32 mg/kg (5 mgFe/kg, high dose group), 16.16 mg/kg (2.5 mg Fe/kg, middle dose group) and 6.46 mg/kg (1.0 mg Fe/kg, low dose group), respectively. The forth, positive drug control group, was provided with ferrous sulfate 12.43 mg/kg (2.5 mg Fe/kg). The fifth was model control group and was offered with iron-low diet (0.9 mg Fe/kg). Each groups were arranged to take drug one time by I.G (gavage) method per day and in the same time were supplemented with deionized water.
The test was sustained three days. Each rat's excrement was collected, dried at temperature 80-90° C., weighed and ground into 40-60 meshes. About 0.5 to 0.6 gram sample was taken and a mixture of nitric acid and perchloric acid at a ratio of 4:1 was added therein until completion of digestion. The constant volume is 10 ml. The iron content of excrement was determined by atomic absorption method and the iron absorptive rate for each rat can be calculated by the formula listed below. [formula]

IDA = settings: in vivo; cited from earlier work
Blood-loss Anemia Model = assay: Blood-loss anemia model, rats; settings: 8.64 mg Fe/kg (middle dosage / positive controls), n=10;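 note: male Wistar rats made anemic by repeated orbital bloodletting, kept on iron-low diet with deionized water while dosed, compared against untreated anemic model and normal-diet control groups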
Description: Ferrous gluconate, the positive control drug, yellow-green powder and 11% ferrous content, was purchased from Ganjian Pharmaceutical Company of Jianxi Province. Ferrous fumarate, 6.4% ferrous content, was purchased from the 18th Pharmaceutical Company of Shanghai. All drugs were diluted by distilled water.
7 groups were prepared as hemolytic anemia groups and one group was taken as normal control group supplemented with normal diet and water. The hemolytic anemia model was prepared by subjecting rats to inner canthus bloodletting of right eye through capillary glass tube. The first bloodletting content was 2.0 ml for each rat and in that time the range of hemochrome for rats was from 9.78 to 10.65 g %. Two days later, the second bloodletting (2 ml/rat) was carried out with the hemochrome values of 7.40-7.88 g %. The total bloodletting volume for each rat was 4 ml and was 32.9% in volume of the whole blood circulating the body.
While one hemolytic anemia group and one normal control group were taken as reference groups compared with other groups left. These two groups' rats were killed and the blood parameters were recorded. Other six groups now were randomly divided into three treatment groups of ferrous L-threonate with high, middle and low dosages respectively, two positive drugs control groups of ferrous gluconate and ferrous fumarate and one model group. At the end of 12 days and 18 days experimental periods, 5 and 10 rats of each group were killed correspondingly. During the course of experiment, the variations of hemochrome content were examined with 6 days interval.
While Element ferrous content 8.64 mg/kg as ferrous gluconate or ferrous fumarate was for positive drug control group. The groups for blood-loss anemia were provided iron-low diet and deionized water during the period of the administration of drugs, while the normal animal control group was provided normal diet and deionized water.

Hemolytic Anemia Model = assay: Hemolytic anemia model (acetylphenylhydrazine), rats; assay type: in vivo, male Wistar rats; settings: 8.64 mg Fe/kg (middle dosage / positive control)
Description: 1. […] All drugs were diluted by distilled water.
2. […] Animal diet also was purchased from Beijing Medical University.
(1) Hemolytic Anemia Model: Hemolytic anemia model was prepared for rats by injecting reagent of acetylphenylhydrazine (C8 H10 N2 O, produced by Beijing Biochemical Company) subcutaneously. The drug acetyphenylhydrazine was mixed with physiological saline to get its injection solution of 4% by weight of acetyphenylhydrazine. The solution was injected subcutaneously into each rat with a dosage of 57 μg/g at the beginning of the experiments. The content of blood hemochrome for each rat was examined at 2 days and 4 days later, respectively. When the mean blood hemochrome decreased to about 6.11±0.25 g %, rats were randomly divided into 6 groups of 18 rats each. […] The forth groups was positive drug control groups. The fifth group and the sixth group were designed as model group and normal control group, respectively.

lymphoma cells = settings: cited from earlier work

Compound	Absorptivity [1]	side effects (IDA)	Blood hemochrome content (Blood-loss Anemia Model; 6 days after treatment)	Blood hemochrome content (Blood-loss Anemia Model; 12 days after treatment)	GPC (blood granulophilocyte) (Blood-loss Anemia Model; 12 days)	RBC (Blood-loss Anemia Model; 12 days)	Blood hemochrome content (Blood-loss Anemia Model; 18 days after treatment)	GPC (blood granulophilocyte) (Blood-loss Anemia Model; 18 days)	RBC (Blood-loss Anemia Model; 18 days)	Blood hemochrome content (Blood-loss Anemia Model; before treatment)	Iron content of whole blood (Hemolytic Anemia Model)	Serum ferritin (SF) (Hemolytic Anemia Model)	hemoglobin content (Hemolytic Anemia Model; after anemia (before treatment))	hemoglobin content (Hemolytic Anemia Model; before anemia (baseline))	hemoglobin content (Hemolytic Anemia Model; one week after treatment)	hemoglobin content (Hemolytic Anemia Model; two weeks after treatment)	uptake of vitamin C by the lymphoma cells (lymphoma cells)
ferrous sulfate [reference compound]	42.00 ± 1.02%	limited because of its side effects	–	–	–	–	–	–	–	–	–	–	–	–	–	–	–
Ferrous gluconate [reference compound]	–	–	7.95 ± 0.30	10.50 ± 0.61	12.66%	4.488e+12 L⁻¹	11.80 ± 0.63	9.04%	5.14e+12 L⁻¹	7.50 ± 0.76	286.04 ± 26.797 µg/mL	20.14 ± 2.83 ng/mL	6.57 g %	15.34 g %	10.62 g %	12.65 g %	–
O=C([O-])/C=C/C(=O)[O-].[Fe+2] [Ferrous fumarate, reference compound]	–	–	7.80 ± 0.24	10.12 ± 0.52	12.66%	4.2e+12 L⁻¹	11.84 ± 0.45	9.04%	5.14e+12 L⁻¹	7.43 ± 0.85	–	–	–	–	–	–	–
O=C(O)[C@H](O)[C@@H](O)CO [Calcium L-threonate]	–	–	–	–	–	–	–	–	–	–	–	–	–	–	–	–	can improve uptake of vitamin C by the lymphoma cells
